Measurements reported in publication PMC4557289, “Thymoproteasomes produce unique peptide motifs for positive selection of CD8^+ T cells” (Nature Communications, 2015).
Entries after “also recorded” stand apart in the source; their conditions may differ.

Key:
OT-I TCR [1] = experiment: MHC-tetramer-binding assay (peptide/H-2K^b tetramers); parameters: species or system mouse; conditions: peptide/H-2K^b tetramers on CD4/CD8 double-positive thymocytes from Tap1^−/− OT-I TCR-transgenic mice, 100 μM cytochalasin D, 37 °C, 90 min, flow cytometry; Fig. 6b; result in words
Description: CD4/CD8 double-positive thymocytes from Tap1^−/− OT-I TCR transgenic mice (6- to 8-week-old females) were stained with indicated peptide-K^b tetramers (MBL) in the presence of 100 μM cytochalasin D (Sigma-Aldrich) at 37 °C for 90 min (refs [31], [44]) and were analysed using flow cytometry.

OT-I TCR [2] = experiment: CD4/CD8 dulling assay, OT-I thymocytes; assay type: cell-based, mouse; conditions: thymocytes from Tap1^−/− OT-I TCR-transgenic mice (n=3) with peptide and irradiated B6-Ly5.1 splenocytes, 18 h, flow cytometry; Fig. 6c; result in words
Description: Dulling assay was performed as described[45][46] with minor modifications. Thymocytes from Tap1^−/− OT-I TCR transgenic mice were stimulated in the presence of peptides and irradiated splenocytes from B6-Ly5.1 mice (CD45.1^+CD45.2^−). Female mice at 6–8 weeks of age were used for experiments. After 18 h, thymocytes were stained with antibodies specific for CD4 (GK1.5), CD8 (53-6.7), CD45.1 (A20) and CD45.2 (104) and analysed using flow cytometry (antibodies were obtained from Biolegend and used at 10 μg ml^−1). Specific dulling of CD4 and CD8 expression induced by peptide stimulation was calculated as previously described.

OT-I TCR [3] = experiment: agonist activity assay (T-cell stimulation, CD69), mature OT-I cells; assay type: cell-based, mouse; conditions: splenocytes from Rag^−/− OT-I TCR transgenic mice (n=3), peptide 5 h, CD69 on CD8^+CD44^lo cells; Fig. 6d; result in words
Description: Spleen cells from Rag1^−/− OT-I TCR transgenic mice (8-week-old females) were cultured in the presence of peptides for 5 h. CD69 expression on CD8^+CD44^lo cells was analysed using flow cytometry using anti-CD69 antibodies (H1.2F3; BD Pharmingen, 10 μg ml^−1).

[4] = test system: thymus lobes from Tap1^−/− OT-I TCR transgenic mice; experiment: fetal thymus organ culture (FTOC) of OT-I thymocytes; assay type: cell-based, mouse; conditions: E15 thymus lobes, peptide 20 μM, 3 days, result in words
Description: FTOC was essentially performed as described previously. Embryonic mice on day 15 of gestation were obtained from Tap1^−/− OT-I TCR transgenic mice. Thymus lobes were cultured on Isopore membrane filters (Millipore) placed on Gelfoam sponge (Pfizer) floated in medium. Peptides were added at a concentration of 20 μM. After 3 days in the culture, thymocytes were stained with antibodies specific for CD4 (GK1.5), CD8 (53-6.7) and Vα2 (B20.1) and analysed using flow cytometry; staining antibodies were obtained from Biolegend and were used at 10 μg ml^−1.

OT-I thymocytes = conditions: known classification of OVAp and variants, Fig. 6a; cited from earlier work
Description: To examine whether these peptide features play roles in thymic selection, we employed the OVA-specific TCR transgenic line OT-I, which is the best-studied model of amino-acid substitution in MHC-associated peptides for thymic selection of functionally competent MHC-I-restricted T cells. […] We then tested OVAp variant peptides with tCP ... || Figure 6 OVAp peptide variants with tCP-dependent motifs show lower affinities to OT-I TCR. (a) List of OVAp variants used for assays in b–d and Fig. 7a,b. (b) Binding of peptide/H-2K^b tetramers to CD4/CD8 double-positive thymocytes from Tap1^−/− OT-I TCR-transgenic mice. (c) Dulling of CD4/CD8 co-receptors in OT-I thymocytes by OVAp variants. Thymocytes from Tap1^−/− OT-I TCR-transgenic mice (n=3) were stimulated in the presence of peptides at indicated concentrations and irradiated splenocytes from B6-Ly5.1 mice. (d) Activation of mature OT-I cells by OVAp variants. Splenocytes from Rag2^−/ ...

Sequence: SIINFEKL [OVAp]
- affinity to OT-I TCR by MHC-tetramer-binding assay (OT-I TCR [1]): high affinity
- affinity to OT-I TCR by CD4/CD8 dulling assay (OT-I TCR [2]): high affinity
- affinity to OT-I TCR by agonist activity assay (OT-I TCR [3]): high affinity
- CD4/CD8 double-positive cells in FTOC ([4]; Fig. 7a,b): depletion of CD4/CD8 double-positive cells
- number of OT-I TCR^high (Vα2^high) CD8 single-positive thymocytes in FTOC, compared with unrelated peptide gp33 ([4]; Fig. 7b, n=3, Student's t-test): clear decrease
- Effects on DP thymocytes (thymic selection of OT-I thymocytes) (OT-I thymocytes): mediates negative selection; also recorded: Negative selector, original Ag
